Laboratory results reported in article PMC11435058, “Synthesis of New Thiazole-Privileged Chalcones as Tubulin Polymerization Inhibitors with Potential Anticancer Activities” (Pharmaceuticals, 2024).

Key:
Test in all cases: NCI-60 anticancer screen (SRB; single dose and five doses)
[1] = tested on: HS 578T; details: Homo sapiens
[2] = tested on: SR; details: Homo sapiens
[3] = tested on: SK-OV-3; details: Homo sapiens
[4] = tested on: NCI-H226; details: Homo sapiens
[5] = tested on: HCT-15; details: Homo sapiens
[6] = tested on: OVCAR-4; details: Homo sapiens
[7] = tested on: UO-31; details: Homo sapiens
[8] = tested on: NCI-H522; details: Homo sapiens
[9] = tested on: MALME-3M; details: Homo sapiens
[10] = tested on: SK-MEL-2; details: Homo sapiens
[11] = tested on: TK-10; details: Homo sapiens
[12] = tested on: U251; details: Homo sapiens
[13] = tested on: MDA-MB-231/ATCC; details: Homo sapiens
[14] = tested on: NCI-H322M; details: Homo sapiens
[15] = tested on: SNB-75; details: Homo sapiens, SNB-75, 48 h, read-out: Growth Percentage
[16] = 48 h, read-out: Growth Percentage

In the case of `Cc1[nH]c(=S)sc1C(=O)/C=C/c1ccc([N+](=O)[O-])cc1` [2i, (E)-1-(4-Methyl-2-Thioxo-2,3-Dihydrothiazol-5-yl)-3-(4-Nitrophenyl)Prop-2-En-1-One], the activity at 10 µM [1, 16] is reported as 68.1%, the CC50 ([1]; read-out: LC50) is reported as 80.9 µM and the IC (TGI) ([1]; read-out: TGI) is reported as 32.4 µM. For the same compound, the GI50 [2] was 2.86 µM, the activity at 10 µM [2, 16] was -4.81% and the CC50 ([2]; read-out: LC50) was > 100 µM. The IC (TGI) ([2]; read-out: TGI) was > 100 µM, the GI50 ([3]; SK-OV-3) was 18.6 µM and the activity at 10 µM ([3]; SK-OV-3, 48 h, read-out: Growth Percentage) was 108%. For the same compound, the CC50 ([3]; SK-OV-3, read-out: LC50) was 76.9 µM, the IC (TGI) ([3]; SK-OV-3, read-out: TGI) was 37.8 µM and the GI50 ([4]; NCI-H226) was 15.6 µM. The activity at 10 µM ([4]; NCI-H226, 48 h, read-out: Growth Percentage) was 91.4%, the CC50 ([4]; NCI-H226, read-out: LC50) was > 100 µM and the IC (TGI) ([4]; NCI-H226, read-out: TGI) was 42.1 µM. The GI50 ([5]; HCT-15) was 2.46 µM, the activity at 10 µM ([5]; HCT-15, 48 h, read-out: Growth Percentage) was -62.1% and the CC50 ([5]; HCT-15, read-out: LC50) was 33.7 µM. The IC (TGI) ([5]; HCT-15, read-out: TGI) was 7.86 µM, the GI50 ([6]; OVCAR-4) was 14.9 µM and the activity at 10 µM ([6]; OVCAR-4, 48 h, read-out: Growth Percentage) was 49.2%. The CC50 ([6]; OVCAR-4, read-out: LC50) was 53.8 µM, the IC (TGI) ([6]; OVCAR-4, read-out: TGI) was 28.3 µM and the GI50 ([7]; UO-31) was 4.86 µM. The activity at 10 µM ([7]; UO-31, 48 h, read-out: Growth Percentage) was -41.3%, the IC (TGI) ([7]; UO-31, read-out: TGI) was 18.8 µM and the GI50 ([8]; NCI-H522) was 9.37 µM. For the same compound, the activity at 10 µM ([8]; NCI-H522, 48 h, read-out: Growth Percentage) was 33%, the CC50 ([8]; NCI-H522, read-out: LC50) was 51.5 µM and the IC (TGI) ([8]; NCI-H522, read-out: TGI) was 22.5 µM. The GI50 [9] was 13.7 µM, the activity at 10 µM [9, 16] was 75.2% and the CC50 ([9]; read-out: LC50) was 70.8 µM. The IC (TGI) ([9]; read-out: TGI) was 31.1 µM, the GI50 ([10]; SK-MEL-2) was 13.6 µM and the activity at 10 µM ([10]; SK-MEL-2, 48 h, read-out: Growth Percentage) was 49.5%. For the same compound, the CC50 ([10]; SK-MEL-2, read-out: LC50) was 62 µM, the IC (TGI) ([10]; SK-MEL-2, read-out: TGI) was 29 µM and the GI50 ([11]; TK-10) was 12.4 µM. It also gave an activity at 10 µM ([11]; TK-10, 48 h, read-out: Growth Percentage) of 12.9%, a CC50 ([11]; TK-10, read-out: LC50) of 51.3 µM and an IC (TGI) ([11]; TK-10, read-out: TGI) of 25.3 µM. For the same compound, the GI50 ([12]; U-251) was 4.1 µM, the activity at 10 µM ([12]; U-251, 48 h, read-out: Growth Percentage) was 13.7% and the CC50 ([12]; U-251, read-out: LC50) was 53 µM. The IC (TGI) ([12]; U-251, read-out: TGI) was 17 µM, the GI50 ([13]; MDA-MB-231) was 12 µM and the activity at 10 µM ([13]; MDA-MB-231, 48 h, read-out: Growth Percentage) was 10.8%. It also gave a CC50 ([13]; MDA-MB-231, read-out: LC50) of 51.5 µM, an IC (TGI) ([13]; MDA-MB-231, read-out: TGI) of 24.8 µM and a GI50 [14] of 11 µM. It also gave an activity at 10 µM [14, 16] of 50.7%, a CC50 ([14]; read-out: LC50) of 54.6 µM and an IC (TGI) ([14]; read-out: TGI) of 24.5 µM. It also gave an activity at 10 µM [15] of 36%.
